The values below come from ChEMBL document CHEMBL3588827, “A new class of ghrelin O-acyltransferase inhibitors incorporating triazole-linked lipid mimetic groups” (Bioorg Med Chem Lett, 2015).

A value given as a limit tells only on which side of the number the result lay.

This experiment concerns the target T1, Membrane-bound ghrelin O-acyltransferase MBOAT4 (Homo sapiens, UniProt Q96T53).
T1 sequence (Q96T53 whole entry): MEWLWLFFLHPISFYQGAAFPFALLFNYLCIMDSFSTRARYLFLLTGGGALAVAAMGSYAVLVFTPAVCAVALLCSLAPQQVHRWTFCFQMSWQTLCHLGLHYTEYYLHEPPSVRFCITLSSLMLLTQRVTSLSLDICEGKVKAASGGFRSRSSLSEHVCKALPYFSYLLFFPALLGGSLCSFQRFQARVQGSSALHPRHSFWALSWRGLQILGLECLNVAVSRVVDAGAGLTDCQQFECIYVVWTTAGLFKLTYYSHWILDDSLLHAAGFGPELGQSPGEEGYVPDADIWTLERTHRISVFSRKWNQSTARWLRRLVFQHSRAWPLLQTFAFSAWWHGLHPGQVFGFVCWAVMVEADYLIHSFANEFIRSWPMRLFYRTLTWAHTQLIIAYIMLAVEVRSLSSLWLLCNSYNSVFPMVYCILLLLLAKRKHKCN
Description: Inhibition of human GOAT octanoylation activity expressed in insect Sf9 cell membranes using GSSFLCAcDan as substrate after 1 hr by reverse phase HPLC with fluorescence detection method.
One may read the IC50 as the concentration at which inhibition is half-maximal. Read a low IC50 as greater potency in that assay. Regarding `CC(C)C[C@H](NC(=O)[C@H](Cc1ccccc1)NC(=O)[C@H](Cn1cc(Cc2ccccc2)nn1)NC(=O)[C@H](CO)NC(=O)CN)C(N)=O`, the IC50 came to 6 µM. The compound `CC(C)C[C@H](NC(=O)[C@H](Cc1ccccc1)NC(=O)[C@H](Cn1cc(CCCc2ccccc2)nn1)NC(=O)[C@H](CO)NC(=O)CN)C(N)=O` displayed a half-inhibitory concentration (IC50) of 0.7 µM. The compound `CC(C)C[C@H](NC(=O)[C@H](Cc1ccccc1)NC(=O)[C@H](Cn1cc(CCCCc2ccccc2)nn1)NC(=O)[C@H](CO)NC(=O)CN)C(N)=O` showed a half-inhibitory concentration (IC50) of over 1 µM.

For the compound `CC(C)C[C@H](NC(=O)[C@H](Cc1ccccc1)NC(=O)[C@H](Cn1cc(CCc2ccccc2)nn1)NC(=O)[C@H](CO)NC(=O)CN)C(N)=O`, inhibition was half-maximal at 3.8 µM (IC50).
